Data: EP0737689A1, “NOVEL 6-SUBSTITUTED OXA- OR […]” (TEIKOKU HORMONE MFG. CO., LTD., priority 1993, dated 1995)

Assays:
aromatase [1] = biological target: T1, aromatase (Homo sapiens, UniProt P11511); test: Assay of aromatase inhibition action (in vitro), 3H2O release from [1β-3H]androstenedione; assay type: biochemical; conditions: freeze dried human placental microsomes, 2 µM [1β-3H]androstenedione, 180 µM NADPH, pH 7.5, 37°C, 20 minutes
T1 construct: Human placental microsomes (ones subjected to centrifugation at 105,000 X g for 60 minutes) were prepared according to the method of Ryan; from tissue; host or cells: human placenta (microsomal fraction)
T1 sequence (P11511 1-503): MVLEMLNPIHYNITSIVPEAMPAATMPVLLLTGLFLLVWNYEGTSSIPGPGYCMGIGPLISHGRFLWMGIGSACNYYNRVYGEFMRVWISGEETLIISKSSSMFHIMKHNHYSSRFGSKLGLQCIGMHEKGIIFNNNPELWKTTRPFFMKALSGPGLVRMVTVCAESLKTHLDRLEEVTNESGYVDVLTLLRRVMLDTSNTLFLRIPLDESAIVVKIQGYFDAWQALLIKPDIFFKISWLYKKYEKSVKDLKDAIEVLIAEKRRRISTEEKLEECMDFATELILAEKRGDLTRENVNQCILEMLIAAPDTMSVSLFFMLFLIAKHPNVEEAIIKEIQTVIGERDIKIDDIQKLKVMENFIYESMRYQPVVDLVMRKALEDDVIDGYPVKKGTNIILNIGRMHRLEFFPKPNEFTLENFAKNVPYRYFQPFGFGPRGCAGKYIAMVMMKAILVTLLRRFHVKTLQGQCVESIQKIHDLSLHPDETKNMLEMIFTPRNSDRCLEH
Method: Human placental microsomes (ones subjected to centrifugation at 105,000 X g for 60 minutes) were prepared according to the method of Ryan (The Journal of Biological Chemistry 234, 268-272, 1959). The microsomes were washed twice with 0.5 mM dithiothreitol solution, freeze dried, and stored at -20°C until use.
An aromatase inhibition action was assayed according to the method developed by Tompson and Siiteri (The Journal of Biological Chemistry 249, 5373-5378, 1974). Namely, the method comprises quantitatively determining ^3H2O released when [1β-^3H]androstenedione is aromatized. The experiment, when the enzyme was used, was conducted in 67 mM phosphate buffer (pH 7.5) so that the amount of the final incubation solution could be 0.5 ml. The incubation solution contains 180 µM of NADPH, 2 µM of [1β-^3H]androstenedione, 150 µg of freeze dried human placental microsomes, 25 µl of methanol and a test compound at various concentrations. Incubation was conducted in the air at 37°C for 20 minutes, 3 ml of chloroform was added to discontinue the reaction, and then the mixture was stirred for 40 seconds. The mixture was then centrifuged at 700 X g for 10 minutes, 0.3 ml of the aqueous solution was sampled from the supernatant, the scintillation mixture was added, and the amount of ^3H2O formed was measured.

aromatase [2] = biological target: T2, aromatase (Rattus norvegicus, UniProt P22443); test: Assay of aromatase inhibition action (in vivo), inhibition of DHEAS-induced cornification of the vaginal smear; conditions: orally once a day for 4 days, hypophysectomized mature female rats, 16 mg/kg DHEAS, cornification relative to solvent administration group
T2 construct: mature female rats after one week from hypophysectomy were used; from tissue; host or cells: whole animal (hypophysectomised mature female rats)
T2 sequence (P22443 1-508): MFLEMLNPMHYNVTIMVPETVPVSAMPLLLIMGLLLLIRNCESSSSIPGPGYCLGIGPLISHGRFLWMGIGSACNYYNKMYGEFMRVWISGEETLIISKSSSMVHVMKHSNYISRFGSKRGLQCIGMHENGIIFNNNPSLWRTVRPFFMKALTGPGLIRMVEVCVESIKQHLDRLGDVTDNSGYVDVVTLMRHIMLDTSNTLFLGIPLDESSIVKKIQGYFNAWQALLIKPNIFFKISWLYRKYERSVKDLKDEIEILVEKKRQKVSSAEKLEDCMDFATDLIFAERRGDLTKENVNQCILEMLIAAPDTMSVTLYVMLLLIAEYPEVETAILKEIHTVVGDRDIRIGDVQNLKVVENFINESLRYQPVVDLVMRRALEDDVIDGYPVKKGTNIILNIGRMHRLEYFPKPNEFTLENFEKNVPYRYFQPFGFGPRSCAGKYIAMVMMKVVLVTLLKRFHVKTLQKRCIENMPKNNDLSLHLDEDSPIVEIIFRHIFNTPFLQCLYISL
Method: An aromatase inhibition action was assayed according to the method developed by G.H.Deckers and A.H.W.M.Schuurs (Journal of Steroid Biochemistry 32, 625-631, 1989).
Namely, mature female rats after one week from hypophysectomy were used with one group of 8 to 10 animals. Either 16 mg/kg of dehydroepiandrosterone sulfate (DHEAS) and 5 ml/kg of a solvent (physiological saline containing 2 % polysorbate 80), or DHEAS and a test compound suspended in the solvent were orally administered once a day for successive 4 days. For 6 days from the next day of start of the administration, the vaginal smear was sampled, and observed under a microscope after being stained with Giemsa staining solution. Cornification of the vaginal smear due to DHEAS was observed from 3 days after the initial administration, and its action disappeared 6 days thereafter. Therefore, the cornification smear number was expressed as the total of from the third day to the fifth day from the start of administration. An cornification inhibition action by the test compound was expressed as a rate to cornification in the solvent administration group.
Since cornification of the vaginal smear is caused by estrogens biosynthetically produced from DHEAS by aromatase, inhibition of the cornification is observed when aromatase is inhibited.

Compound | IC50 (aromatase [1]) | Inhibition rate (%) (aromatase [2]; dose 5 mg/kg/day) | Inhibition rate (%) (aromatase [2]; dose 2 mg/kg/day)
CS[C@@H]1C[C@H]2[C@@H]3CCOC[C@@]3(C)CC[C@@H]2[C@@]2(C)C=CC(=O)C=C12 [Example 10, 6β-(methylthio)-D-homo-17-oxaandrosta-1,4-dien-3-one] | 0.8 µM |  | 
C[C@]12C=CC(=O)C=C1[C@@H](SC#N)C[C@@H]1[C@@H]2CC[C@]2(C)C(=O)OCC[C@@H]12 [Example 13 (6α), 6α-thiocyanato-D-homo-17-oxaandrosta-1,4-diene-3,17a-dione] |  | 81.3% | 
CC(=O)S[C@H]1C[C@@H]2[C@H](CC[C@]3(C)C(=O)OCC[C@@H]23)[C@@]2(C)C=CC(=O)C=C12 [Example 15, 6α-(acetylthio)-D-homo-17-oxaandrosta-1,4-diene-3,17a-dione] | 1.6 µM |  | 90.9%
C[C@]12CC[C@H]3[C@@H](C[C@H](N=[N+]=[N-])C4=CC(=O)C=C[C@@]43C)[C@@H]1CCOC2 [Example 17, 6α-azido-D-homo-17-oxaandrosta-1,4-dien-3-one] |  | 100% | 
CC(=O)S[C@H]1C[C@H]2[C@@H]3CCOC[C@@]3(C)CC[C@@H]2[C@@]2(C)C=CC(=O)C=C12 [Example 19, 6α-(acetylthio)-D-homo-17-oxaandrosta-1,4-dien-3-one] |  | 72.3% | 
CO[C@@H]1C[C@@H]2[C@H](CC[C@]3(C)C(=O)OCC[C@@H]23)[C@@]2(C)C=CC(=O)C=C12 [Example 31, 6β-methoxy-D-homo-17-oxaandrosta-1,4-diene-3,17a-dione] |  | 100% | 
